In brackets after ≈: the same amount, converted by molar mass. Like-named read-outs stand apart in the source and are kept apart here.
Assays:
Assay type in all cases: cell-based
S. uberis ATCC 19436 = assay: MIC by broth microdilution, S. uberis; details: Streptococcus uberis, read-out: S. uberis ATCC 19436 MIC
How it was run: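 The MIC against S. uberis ATCC 19436 was the lowest compound concentration showing no growth by OD600 after 24 h at 37° C. with 200 rpm shaking. Cultures grown overnight were adjusted to OD600 ~0.025 so wells held approximately 5×10^5 cfu/mL in THB. Two-fold dilution series were made at a final volume of 200 μl. Media and untreated controls were run in triplicate on each plate.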

S. aureus ATCC 6538 = assay: MIC by broth microdilution, S. aureus; details: Staphylococcus aureus, read-out: S. aureus ATCC 6538 MIC
How it was run: (§1)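 Media: TSB or CAMHB for S. aureus, LB or CAMHB for E. coli, with zinc sulphate to 50 μM final where required. Cells at ~5×10^5 cfu/mL met two-fold compound series; growth was scored by OD600 after 24 h shaking at 37° C.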

E. coli ATCC 10596 = assay: MIC by broth microdilution, E. coli; details: Escherichia coli, read-out: E. coli ATCC 10536 MIC
How it was run: as §1

[1] = ATCC 10536 / ATCC 10596, No Zinc
[2] = ATCC 10536 / ATCC 10596, Zinc (50 μM)

Row | Compound | MIC (S. uberis ATCC 19436; ATCC19436, No Zinc) [µg/mL] | MIC (S. uberis ATCC 19436; ATCC19436, Zinc (50 μM)) [µg/mL] | MIC (S. aureus ATCC 6538; ATCC6538, No Zinc) [µg/mL] | MIC (S. aureus ATCC 6538; ATCC6538, Zinc (50 μM)) [µg/mL] | MIC (E. coli ATCC 10596; [1]) [µg/mL] | MIC (E. coli ATCC 10596; [2]) [µg/mL]
1 | COC(=O)c1sccc1S(=O)(=O)Nc1cccc2ccc(CN(C)C)nc12 [ZDR319, Methyl 3-(N-(2-((dimethylamino)methyl)quinolin-8-yl)sulfamoyl)thiophene-2-carboxylate] | > 256 | 1 (≈ 2.47 µM) | > 256 | > 256 | > 256 | > 256
2 | CN(C)Cc1ccc2cccc(NS(=O)(=O)Cc3ccc(C(F)(F)F)cc3)c2n1 [ZDR320, N-(2-((Dimethylamino)methyl)quinolin-8-yl)-1-(4-(trifluoromethyl)phenyl)methanesulfonamide] | 256 (≈ 605 µM) | 0.0625 (≈ 0.148 µM) | > 256 | 128 (≈ 302 µM) | > 256 | > 256
3 | CCCCS(=O)(=O)Nc1cccc2ccc(CN(C)C)nc12 [ZDR321, N-(2-((Dimethylamino)methyl)quinolin-8-yl)butane-1-sulfonamide] | 256 (≈ 796 µM) | 0.25 (≈ 0.778 µM) | > 256 | 128 (≈ 398 µM) | > 256 | > 256
4 | CN(C)Cc1ccc2cccc(NS(=O)(=O)c3ccc(Cl)nc3)c2n1 [ZDR322, 6-Chloro-N-(2-((dimethylamino)methyl)quinolin-8-yl)pyridine-3-sulfonamide] | > 256 | 0.25 (≈ 0.663 µM) | 128 (≈ 340 µM) | > 256 | > 256 | > 256
5 | CN(C)Cc1ccc2cccc(NS(=O)(=O)C3CC3)c2n1 [ZDR323, N-(2-((Dimethylamino)methyl)quinolin-8-yl)cyclopropanesulfonamide] | > 256 | 1 (≈ 3.27 µM) | > 256 | 256 (≈ 838 µM) | > 256 | > 256
6 | CN(C)Cc1ccc2cccc(NS(=O)(=O)c3ccc(C=O)cc3)c2n1 [ZDR324, N-(2-((Dimethylamino)methyl)quinolin-8-yl)-4-formylbenzenesulfonamide] | 256 (≈ 693 µM) | 1 (≈ 2.71 µM) | 256 (≈ 693 µM) | 256 (≈ 693 µM) | > 256 | > 256
7 | CN(C)Cc1ccc2cccc(NS(=O)(=O)c3ccc(Cl)s3)c2n1 [ZDR326, 5-Chloro-N-(2-((dimethylamino)methyl)quinolin-8-yl)thiophene-2-sulfonamide] | 128 (≈ 335 µM) | 0.125 (≈ 0.327 µM) | 32 (≈ 83.8 µM) | 128 (≈ 335 µM) | 256 (≈ 670 µM) | > 256
8 | CC(=O)Nc1cccc(S(=O)(=O)Nc2cccc3ccc(CN(C)C)nc23)c1 [ZDR327, N-(3-(N-(2-((Dimethylamino)methyl)quinolin-8-yl)sulfamoyl)phenyl)acetamide] | 256 (≈ 642 µM) | 8 (≈ 20.1 µM) | > 256 | > 256 | > 256 | > 256
9 | CN(C)Cc1ccc2cccc(NS(=O)(=O)c3cccnc3)c2n1 [ZDR328, N-(2-((Dimethylamino)methyl)quinolin-8-yl)pyridine-3-sulfonamide] | > 256 | 1 (≈ 2.92 µM) | > 256 | > 256 | > 256 | > 256
10 | CN(C)Cc1ccc2cccc(NS(=O)(=O)c3ccc(SC(F)(F)F)cc3)c2n1 [ZDR330, N-(2-((Dimethylamino)methyl)quinolin-8-yl)-4-((trifluoromethyl)thio)benzenesulfonamide] | 128 (≈ 290 µM) | 0.125 (≈ 0.283 µM) | 32 (≈ 72.5 µM) | 32 (≈ 72.5 µM) | > 256 | > 256
11 | CN(C)Cc1ccc2cccc(NS(=O)(=O)c3cccc(C(N)=O)c3)c2n1 [ZDR331, 3-(N-(2-((Dimethylamino)methyl)quinolin-8-yl)sulfamoyl)benzamide] | > 256 | 16 (≈ 41.6 µM) | > 256 | > 256 | > 256 | > 256
12 | COC(=O)Nc1ccc(S(=O)(=O)Nc2cccc3ccc(CN(C)C)nc23)cc1 [ZDR332, Methyl (4-(N-(2-((dimethylamino)methyl)quinolin-8-yl)sulfamoyl)phenyl)carbamate] | 256 (≈ 618 µM) | 2 (≈ 4.83 µM) | > 256 | > 256 | > 256 | > 256
13 | CN(C)Cc1ccc2cccc(NS(=O)(=O)c3ccc(NC(=O)OC(C)(C)C)cc3)c2n1 [ZDR333, tert-Butyl (4-(N-(2-((dimethylamino)methyl)quinolin-8-yl)sulfamoyl)phenyl)carbamate] | 64 (≈ 140 µM) | 0.125 (≈ 0.274 µM) | 128 (≈ 280 µM) | 128 (≈ 280 µM) | > 256 | > 256
14 | CN(C)Cc1ccc2cccc(NS(=O)(=O)c3cccc(Cl)c3Cl)c2n1 [ZDR336, 2,3-Dichloro-N-(2-((dimethylamino)methyl)quinolin-8-yl)benzenesulfonamide] | 64 (≈ 156 µM) | 0.0625 (≈ 0.152 µM) | 64 (≈ 156 µM) | 128 (≈ 312 µM) | > 256 | > 256
15 | CN(C)Cc1ccc2cccc(NS(=O)(=O)c3cc(F)c(F)cc3F)c2n1 [ZDR337, N-(2-((Dimethylamino)methyl)quinolin-8-yl)-2,4,5-trifluorobenzenesulfonamide] | 256 (≈ 647 µM) | 0.0625 (≈ 0.158 µM) | > 256 | > 256 | > 256 | > 256
16 | CN(C)Cc1ccc2cccc(NS(=O)(=O)c3ccc(F)c(F)c3)c2n1 [ZDR338, N-(2-((Dimethylamino)methyl)quinolin-8-yl)-3,4-difluorobenzenesulfonamide] | 128 (≈ 339 µM) | 0.0625 (≈ 0.166 µM) | > 256 | > 256 | > 256 | > 256
17 | CN(C)Cc1ccc2cccc(NS(=O)(=O)c3cccc4cnccc34)c2n1 [ZDR339, N-(2-((Dimethylamino)methyl)quinolin-8-yl)isoquinoline-5-sulfonamide] | 256 (≈ 652 µM) | 2 (≈ 5.1 µM) | > 256 | > 256 | > 256 | > 256
18 | CN(C)Cc1ccc2cccc(NS(=O)(=O)c3cccc4cccnc34)c2n1 [ZDR340, N-(2-((Dimethylamino)methyl)quinolin-8-yl)quinoline-8-sulfonamide] | 64 (≈ 163 µM) | 0.25 (≈ 0.637 µM) | > 256 | 32 (≈ 81.5 µM) | > 256 | > 256
19 | CCCCNCc1ccc2cccc(NS(=O)(=O)c3ccc(C(F)(F)F)cc3)c2n1 [ZDR401, N-(2-((Butylamino)methyl)quinolin-8-yl)-4-(trifluoromethyl)benzenesulfonamide] | 16 (≈ 36.6 µM) | 0.125 (≈ 0.286 µM) | 32 (≈ 73.1 µM) | 128 (≈ 293 µM) | 64 (≈ 146 µM) | > 256
20 | CCC(C)NCc1ccc2cccc(NS(=O)(=O)c3ccc(C(F)(F)F)cc3)c2n1 (stereo not drawn) [ZDR402, N-(2-((sec-Butylamino)methyl)quinolin-8-yl)-4-(trifluoromethyl)benzenesulfonamide] | 16 (≈ 36.6 µM) | 0.125 (≈ 0.286 µM) | 32 (≈ 73.1 µM) | 128 (≈ 293 µM) | 256 (≈ 585 µM) | > 256
21 | CC(C)CNCc1ccc2cccc(NS(=O)(=O)c3ccc(C(F)(F)F)cc3)c2n1 [ZDR403, N-(2-((Iso-Butylamino)methyl)quinolin-8-yl)-4-(trifluoromethyl)benzenesulfonamide] | 16 (≈ 36.6 µM) | 0.125 (≈ 0.286 µM) | 32 (≈ 73.1 µM) | 128 (≈ 293 µM) | 64 (≈ 146 µM) | 256 (≈ 585 µM)
22 | O=S(=O)(Nc1cccc2ccc(CNC3CCCC3)nc12)c1ccc(C(F)(F)F)cc1 [ZDR404, N-(2-((Cyclopentylamino)methyl)quinolin-8-yl)-4-(trifluoromethyl)benzenesulfonamide] | 16 (≈ 35.6 µM) | 0.125 (≈ 0.278 µM) | 32 (≈ 71.2 µM) | 256 (≈ 570 µM) | 128 (≈ 285 µM) | > 256
23 | O=S(=O)(Nc1cccc2ccc(CNC3CCCCC3)nc12)c1ccc(C(F)(F)F)cc1 [ZDR405, N-(2-((Cyclohexylamino)methyl)quinolin-8-yl)-4-(trifluoromethyl)benzenesulfonamide] | 16 (≈ 34.5 µM) | 0.125 (≈ 0.27 µM) | 64 (≈ 138 µM) | 128 (≈ 276 µM) | 128 (≈ 276 µM) | > 256
24 | O=S(=O)(Nc1cccc2ccc(CNCC3CCCCC3)nc12)c1ccc(C(F)(F)F)cc1 [ZDR406, N-(2-(((Cyclohexylmethyl)amino)methyl)quinolin-8-yl)-4-(trifluoromethyl)benzenesulfonamide] | 16 (≈ 33.5 µM) | 0.125 (≈ 0.262 µM) | 32 (≈ 67 µM) | 128 (≈ 268 µM) | 64 (≈ 134 µM) | 256 (≈ 536 µM)
25 | O=S(=O)(Nc1cccc2ccc(CN3CCCC3)nc12)c1ccc(C(F)(F)F)cc1 [ZDR407, N-(2-(Pyrrolidin-1-ylmethyl)quinolin-8-yl)-4-(trifluoromethyl)benzenesulfonamide] | 128 (≈ 294 µM) | 0.125 (≈ 0.287 µM) | 64 (≈ 147 µM) | 256 (≈ 588 µM) | 256 (≈ 588 µM) | 256 (≈ 588 µM)
26 | O=S(=O)(Nc1cccc2ccc(CN3CCCCCC3)nc12)c1ccc(C(F)(F)F)cc1 [ZDR408, N-(2-(Azepan-1-ylmethyl)quinolin-8-yl)-4-(trifluoromethyl)benzenesulfonamide] | 32 (≈ 69 µM) | 0.125 (≈ 0.27 µM) | 64 (≈ 138 µM) | 256 (≈ 552 µM) | > 256 | 256 (≈ 552 µM)

Source: patent publication US11691949B2, “Quinoline sulfonamide compounds and their use as antibacterial agents” (OTAGO INNOVATION LIMITED, priority 2017, dated 2023)
